Values after ≈ are worked out from the molar mass of the structure shown.
Details: buffer; pH 7.4; 200.0 µM

Compound | solubility kinetic
O=C(NCc1csc2ccc(Cl)cc12)Nc1ccccc1 | < 0.3 µg/mL
CC(=O)Nc1ccc(NCc2ccc(C)s2)cc1 | > 39.1 µg/mL
CCOc1ccccc1NC(=O)COC(=O)CN1C(=O)NC(C)(C)C1=O | > 54.5 µg/mL
O=[N+]([O-])c1ccccc1S(=O)(=O)N1CCCC(C(F)(F)F)C1 (stereo not drawn) | 3.1 µg/mL (≈ 9.16 µM)
COc1ccc2nc(/N=C/c3cccc(OC)c3O)sc2c1 | > 47.2 µg/mL
NC(=O)c1cccc(NC(=O)Nc2ccc(Cl)cc2)c1 | 4.6 µg/mL (≈ 15.9 µM)
O=[N+]([O-])c1cnccc1NC1CCCCC1 | 29.1 µg/mL (≈ 132 µM)
Cc1ccc(NCc2ccc(O)c3ncccc23)cc1 | 5 µg/mL (≈ 18.9 µM)
COCCn1c(C)cc(C(=O)CSc2nc(C)c(C)c(C)n2)c1C | 45.3 µg/mL (≈ 130 µM)
COC(=O)Cc1ccc(NC(=S)N2CCN(c3ccccn3)CC2)cc1 | 5 µg/mL (≈ 13.5 µM)
Cc1cccc(NC2=C(Cl)C(=O)OC2OC(=O)c2ccco2)c1 (stereo not drawn) | 35.1 µg/mL (≈ 105 µM)
CCOc1ccccc1OCCC(=O)Nc1ccc2c(c1)OCO2 | > 49.4 µg/mL
O=C(Cc1ccc(Cl)cc1)NCc1nc(-c2ccccc2)no1 | 1.9 µg/mL (≈ 5.8 µM)
O=C(COC(=O)/C=C/c1ccccc1)NC1CCCCCC1 | 10.4 µg/mL (≈ 34.5 µM)
CN(C)S(=O)(=O)c1cccc(COc2cccnc2[N+](=O)[O-])c1 | 12.1 µg/mL (≈ 35.9 µM)
CN1CCN(C(=S)NC(=O)/C=C/c2cccs2)CC1 | 41.9 µg/mL (≈ 142 µM)
Cc1nc(-c2cccc(NC(=O)c3ccco3)c2)cs1 | > 42.6 µg/mL
O=c1[nH]sc2ccccc12 | 21.7 µg/mL (≈ 144 µM)
CC(C)CC(=O)Nc1ccc([N+](=O)[O-])cc1Cl | 9.8 µg/mL (≈ 38.2 µM)
Cc1cc([N+](=O)[O-])cc2c1NC(=O)C2(O)N1CCCC(C)C1 (stereo not drawn) | 28.3 µg/mL (≈ 92.7 µM)
COc1ccccc1CNc1ncccc1[N+](=O)[O-] | 1.3 µg/mL (≈ 5.01 µM)
CS(=O)(=O)/C(C#N)=C/c1cccn1S(=O)(=O)c1ccccc1 | 6.8 µg/mL (≈ 20.2 µM)
N#CCSc1nc2sccc2c(=O)n1-c1ccccc1 | 37 µg/mL (≈ 124 µM)
O=C(NCc1ccccc1)C1(c2cccc(F)c2)CCCC1 | 12.2 µg/mL (≈ 41 µM)

Compound | solubility kinetic
CC(C)(C)C(=O)OC/C(N)=N/OC(=O)c1ccc(Cl)cc1 | 1.6 µg/mL (≈ 5.12 µM)
CCOC(=O)c1sc(Nc2cccc(Cl)c2)nc1C | < 0.3 µg/mL
O=C(COC(=O)COc1ccccc1)Nc1ccc(Cl)cn1 | 13.3 µg/mL (≈ 41.5 µM)
O=C(Nc1ccc(Cl)c(Cl)c1)c1ccco1 | 8.5 µg/mL (≈ 33.2 µM)
Cc1nc2ccccn2c1C(=O)NN=C1CCN(C)CC1 | > 42.8 µg/mL
CCOC(=O)c1ccc(NC(=O)c2cccnc2)cc1 | > 40.5 µg/mL
Cc1ccc(OCC(=O)N2CCC3(CC2)CC(=O)c2ccccc2O3)cc1 | 54.2 µg/mL (≈ 148 µM)
O=C(COC(=O)c1ccc(Cl)nc1)c1ccc2c(c1)OCCO2 | 14.7 µg/mL (≈ 44 µM)
O=C(O)COc1ccc(NC(=O)C(c2ccccc2)c2ccccc2)cc1 | > 54.2 µg/mL
O=C(CSC(=S)N1CCOCC1)Nc1nccs1 | 7.9 µg/mL (≈ 26 µM)
O=C(NC(=S)Nc1ccccc1O)c1cccnc1 | > 41 µg/mL
N#CCCN(C(=O)CSc1n[nH]c(=O)[nH]c1=O)c1ccccc1 | > 49.7 µg/mL
CCCNC(=O)CCn1c(=S)oc2ccccc21 | > 39.7 µg/mL
CN(C(=O)COC(=O)C1CCN(S(=O)(=O)c2ccc(Cl)cc2)CC1)C1CCS(=O)(=O)C1 (stereo not drawn) | 18 µg/mL (≈ 36.5 µM)
O=[N+]([O-])c1cc(NCCO)c(N2CCCCCC2)c2nonc12 | 42.3 µg/mL (≈ 132 µM)
CN1CCN(C(=S)C(=O)NCc2ccccc2)CC1 | > 41.6 µg/mL
CCN(CC)CCOc1ccc(/C(=C(/Cl)c2ccccc2)c2ccccc2)cc1 | 1.5 µg/mL (≈ 3.69 µM)
CCc1nc2sc(C(C)=O)c(N)c2c2c1CCCC2 | 1.1 µg/mL (≈ 4.01 µM)
COc1ccc(C(C)=O)cc1Cc1c(O)[nH]c(=S)[nH]c1=O | > 46 µg/mL
CCN(CC(=O)Nc1c(F)cccc1F)C(=O)c1ccc(=O)[nH]c1 | > 50.3 µg/mL
Cc1nc(SCC(=O)N2CCOCC2)c2c3c(sc2n1)CCC3 | 32.8 µg/mL (≈ 93.9 µM)
CCN(CC(=O)Nc1c(F)cccc1F)C(=O)c1ccccn1 | > 47.9 µg/mL
C/C=C/c1ccc(OCC(=O)NCc2ccccc2OC)c(OC)c1 | 2.9 µg/mL (≈ 8.49 µM)
CCCCn1c(=O)c(C(=O)NCc2ccco2)c(O)c2ccccc21 | < 0.4 µg/mL

Compound | solubility kinetic
CC(C)C(=O)Nc1ccc2c(c1)Cc1cc(NC(=O)C(C)C)ccc1-2 | < 0.4 µg/mL
CC(=O)c1c(C)[nH]c(C(=O)Nc2ccc(Cl)cc2F)c1C | 0.7 µg/mL (≈ 2.27 µM)
CSc1ccccc1C(=O)NC1CCCc2ccccc21 (stereo not drawn) | 11.7 µg/mL (≈ 39.3 µM)
CN1CCc2c(sc(NC(=O)Cc3ccc(F)cc3)c2C(N)=O)C1.Cl | 52.6 µg/mL
O=c1c(Cl)c2oc3ccccc3nc-2c2ccccc12 | 4.2 µg/mL (≈ 14.9 µM)
COCCSc1ccccc1C(=O)NCc1cccnc1 | > 45.4 µg/mL
CC(C)(C)NC(=O)CSc1nc(N)cc(=O)[nH]1 | > 38.4 µg/mL
N#Cc1c(-c2ccccc2)[nH]c(=O)[nH]c1=O | > 32 µg/mL
CCc1ccccc1NC(=O)CC(=O)Nc1ccccc1CC | > 46.6 µg/mL
CCOC(=O)Cn1c(=O)oc2cc(S(=O)(=O)NC(C)(C)CC)ccc21 | 53.8 µg/mL (≈ 145 µM)
CC(=O)Nc1c(-c2ccccc2Cl)c(=O)c2ccccc2n1C | > 49 µg/mL
O=C(NCCCO)C(=O)Nc1cc2c3c(c1)CCN3C(=O)CC2 | > 47.6 µg/mL
CC(C)CCNC(=O)C(=O)NCc1ccccc1 | 2.6 µg/mL (≈ 10.5 µM)
CCCC(=O)NC(=S)Nc1cccc(Cl)c1N1CCCC1 | 0.5 µg/mL (≈ 1.53 µM)
CN(C(=O)CSc1nnc(N)s1)C1CCCCC1 | > 43 µg/mL
COc1ccccc1NS(=O)(=O)c1cc(NC(=O)c2cc(F)c(F)c(F)c2F)ccc1N1CCOCC1 | 3.6 µg/mL (≈ 6.67 µM)
Cn1cccc1/C=N\NC(=O)c1cncc(Br)c1 | > 46.1 µg/mL
O=C(NCCCn1ccnc1)c1cccc(Br)c1 | 46.2 µg/mL (≈ 150 µM)
CCn1c([N+](=O)[O-])nc2c1c(=O)[nH]c(=O)n2C | > 35.9 µg/mL
COc1ccc2[nH]cc(CCN3C(=O)c4ccc(C(=O)O)cc4C3=O)c2c1 | > 54.7 µg/mL
O=C1ON=C(c2ccc([N+](=O)[O-])cc2)/C1=C/c1ccccc1O | > 46.5 µg/mL
O=C(O)Cc1sc(NCc2ccco2)nc1-c1ccccc1 | 46.8 µg/mL (≈ 149 µM)
Nc1nc(NCCO)nc(NCc2ccccc2)c1[N+](=O)[O-] | 15.6 µg/mL (≈ 51.3 µM)
CCCCNC(=O)COCc1cc(-c2ccc3c(c2)OCO3)on1 | 19.5 µg/mL (≈ 58.7 µM)

Compound | solubility kinetic
O=C(CN1CCN(c2ccc([N+](=O)[O-])cc2)CC1)c1ccccc1 | 22.5 µg/mL (≈ 69.2 µM)
Cc1ccc(NC(=O)COC(=O)c2ccc(NC(=O)CC#N)cc2)cc1S(=O)(=O)N1CCOCC1 | 23.6 µg/mL (≈ 47.1 µM)
Cl.c1ccc2c(N3CCNCC3)cccc2c1 | > 37.3 µg/mL
CCOc1ccccc1NC(=S)NC(=O)c1ccco1 | 1.9 µg/mL (≈ 6.54 µM)
CCOc1ccc(Nc2nc(N)c([N+](=O)[O-])c(NCc3ccccc3)n2)cc1 | < 0.1 µg/mL
Cc1nc([N+](=O)[O-])cn1Cc1cccc2ccccc12 | 2.5 µg/mL (≈ 9.35 µM)
Cc1ccccc1OCCn1ccnc1 | 24.5 µg/mL (≈ 121 µM)
NS(=O)(=O)c1cccc(NC(=O)C2CC(=O)N(Cc3ccco3)C2)c1 (stereo not drawn) | > 54.5 µg/mL
COc1cccc(C(=O)Nc2ccc3c(C)cc(=O)oc3c2)c1 | < 0.7 µg/mL
Cc1cc(F)ccc1S(=O)(=O)Nc1nc2ccccc2nc1Cl | > 52.8 µg/mL
COc1cccc(C(=O)Nc2cccc(NC(=O)c3cccs3)c2)c1 | 13.5 µg/mL (≈ 38.3 µM)
CC(=O)c1c2c3c(cccc3n(C)c1=O)C(=O)c1ccccc1-2 | < 0.6 µg/mL
N#CNC(=Nc1ccc(Cl)cc1)Oc1ccccc1 | 1.9 µg/mL (≈ 6.99 µM)
COc1ccc(OC)c(N2C(=O)c3cccnc3C2=O)c1 | > 42.6 µg/mL
CCOc1ccc(C(=O)Nc2ccc3c(c2)OCCO3)cc1 | < 0.6 µg/mL
Cc1ccc(CNC(=O)COC(=O)COc2ccc(C#N)cc2)cc1 | > 50.8 µg/mL
O=[N+]([O-])c1ccc(NCc2ccccc2N2CCC(CO)CC2)nc1 | 12.4 µg/mL (≈ 36.2 µM)
CN(C(=O)COC(=O)/C=C/c1ccccc1[N+](=O)[O-])c1ccccc1 | 47.5 µg/mL (≈ 140 µM)
Cc1onc(-c2ccccc2)c1C(=O)/C=C/N(C)C | 36.4 µg/mL (≈ 142 µM)
CCOC(=O)/C=C/C(=O)OCC(=O)Nc1cccc(Br)c1 | 13.8 µg/mL (≈ 38.7 µM)
CCOc1ccccc1CNCCc1ccc2c(c1)OCO2.Cl | 49.6 µg/mL
O=Cc1ccccc1OCCN1CCCC1=O | 33.8 µg/mL (≈ 145 µM)
Cc1cc(/C=C(\C#N)C(=O)O)c(C)n1CC1CCCO1 (stereo not drawn) | > 41.1 µg/mL
CC(=O)Nc1ccc(NC(=O)CSc2nc3ccccc3c(=O)n2CCCN2CCOCC2)cc1 | 70.9 µg/mL (≈ 143 µM)

Compound | solubility kinetic
O=C(COC(=O)c1ccc(Cl)c(Cl)c1)NC1CCCC1 | 2 µg/mL (≈ 6.33 µM)
CC(=O)Nc1ccc(/C=C/c2nc3ccccc3[nH]c2=O)cc1 | 27 µg/mL (≈ 88.4 µM)
COc1cccc(-n2c(/C=C/c3ccccn3)nc3ccccc3c2=O)c1 | 0.5 µg/mL (≈ 1.41 µM)
CC(=O)Nc1ccc(NC(=O)CCOc2ccccc2C)cc1 | 21.1 µg/mL (≈ 67.5 µM)
COC(=O)c1cc(S(=O)(=O)NCCCc2ccco2)c[nH]1 | > 46.9 µg/mL
CC(=O)c1c(C)[nH]c(C(=O)COC(=O)c2c(-c3ccccc3)noc2C)c1C | 2.1 µg/mL (≈ 5.52 µM)
Nc1nc(Cl)cc(-c2ccccc2)n1 | 29.3 µg/mL (≈ 142 µM)
O=C(Nc1ccccc1C(=O)N1CCCCCC1)c1ccccc1 | > 48.4 µg/mL
CC(=O)Oc1ccc2c(=O)c(/C=N/c3cc(=O)[nH]c(=S)[nH]3)coc2c1 | 30.6 µg/mL (≈ 85.6 µM)
COc1ccccc1/C=C/C(=O)N1CCN(S(=O)(=O)c2cccs2)CC1 | 23.7 µg/mL (≈ 60.4 µM)
COC(=O)c1sccc1NC(=O)Nc1cccc(C)c1C | 8.1 µg/mL (≈ 26.6 µM)
C=CCn1c(SCC(C)=O)nc2scc(-c3ccc(C)o3)c2c1=O | 1.6 µg/mL (≈ 4.44 µM)
Cc1onc(-c2c(F)cccc2Cl)c1C(=O)Nc1ccc(S(=O)(=O)N2CCOCC2)cc1 | 2.3 µg/mL (≈ 4.79 µM)
Cc1cnc(C(=O)OCC(=O)c2ccc(-c3ccccc3)cc2)cn1 | 7.7 µg/mL (≈ 23.2 µM)
COC(=O)Cc1ccc(NC(=S)N2CCC(Cc3ccccc3)CC2)cc1 | 6.5 µg/mL (≈ 17 µM)
Cl.c1ccc2c(c1)OCC(C1=NCCN1)O2 (stereo not drawn) | > 36.1 µg/mL
Cc1cccc(NC(=O)Nc2ccccc2[N+](=O)[O-])n1 | 0.3 µg/mL (≈ 1.1 µM)
O=C(NC1CCCc2ccccc21)c1c(F)cccc1Cl (stereo not drawn) | 8.3 µg/mL (≈ 27.3 µM)
COc1ccc(OC)c(C(=O)COC(=O)c2cccnc2SC)c1 | 4.2 µg/mL (≈ 12.1 µM)
Nc1ccc(N2CCCCC2)c2nonc12 | > 32.7 µg/mL
Cc1c(Cl)cccc1NC(=O)NCCCN1CCCC1=O | > 46.5 µg/mL
S=C(Nc1cccnc1)Nc1ccccn1 | > 34.5 µg/mL

— PubChem BioAssay AID1996
